Series [1] relates to lung tissue gene expression, upstream regulators. Description: Lung tissue RNA sequence analysis with ingenuity pathway analysis, murine P. multocida challenge. As to conditions: M9 32 mg/kg. Format: in vivo, mice. As to the method:
In one murine P. multocida intranasal challenge study, mice were administered tulathromycin (16 mg/kg; T02), M9 (32 mg/kg; T03), or ceftiofur (9 mg/kg; T04) by subcutaneous injection 18 hours after bacterial challenge (5×10^3 CFU/mouse) for lung tissue RNA sequence analysis. Survival at Day 7 was about 80%, 50%, and 90% for T02, T03, and T04, respectively, compared to placebo at 0%. Differential gene expression from total lung tissue RNA sequence analysis indicated at least 226 unique genes were up or down regulated (with significance) for T03. Output from ingenuity pathway analysis of these unique genes predicted major upstream regulators of the involved pathways. Data was analyzed based on the number of genes being modulated in the same direction that were associated with a given upstream regulator. An activation z-score of 2 or greater is considered significant and the direction change is indicated by + (activated) or -(inhibited). The top 5 pathways included: IL-9 signaling, glucocorticoid receptor signaling, prolactin signaling, JAK STAT signaling, and IL-17 signaling. The top 6 upstream regulators (activation z-score) included: lipopolysaccharide (−6.725), TNF (−4.669), IFNγ (−5.759), IL-1β (−5.947), STAT1 (−2.787), and poly rl: rC-RNA (−5.289). Even though this study was run in the murine model, the top upstream regulators identified as being modulated by M9 include an almost ubiquitous overlap with the pathways identified in the natural disease study as being key mediators in BRD, and therefore is modulating highly relevant pathways in BRD pathobiology.

Series [2] can be described thus: PK study, plasma concentration. Format: in vivo. The settings on record: 10 mg/kg dose.
Procedure: The primary clinical endpoint for efficacy was treatment failure/success over a 14-day observation period. Clinically normal beef calves (150-200 kg) at moderate risk for BRD were dosed on arrival to the feedlot. Animals (N=114/group) received saline (T01), 5 mg/kg M9 (T02) or 10 mg/kg M9 (T03); or Zactran (T04).
The test system of series [3] is M. haemolytica (strain: OSU-012103-BHI). Description: Bovine M. haemolytica intratracheal lung challenge model, mortality. The format is in vivo. As to conditions: 6 animals. As to the method:
To evaluate immunomodulation effects and potential biomarkers, a bovine M. haemolytica (strain: OSU-012103-BHI) intratracheal lung challenge model study was completed utilizing M9 treatment in the presence and absence of bacterial challenge and a Draxxin® comparator. […] Animals were administered 0.05 mL/kg saline (T01), 10 mg/kg M9 (T02); Draxxin 2.5 mg/kg (T03) and 10 mg/kg M9 (T04) by subcutaneous injection on Day-1. Dose was based on body weight. Animals were challenge on Day 0 with the exception of T04. Blood was collected longitudinally throughout the study for biomarker evaluation panel (e.g., IL-6 and CD163) including two baseline samples prior to treatment. FIG. 4A depicts the area under the curve concentrations for IL-6 protein for individual animals against percent lung lesion scores and FIG. 4B depicts the CD163 fold change area under the curve for individual animals against percent lung lesion scores. Data is represented as percent lung lesion scores against the area under the curve (AUC) for IL-6 protein (immunoassay expressed in pg/mL) and CD163 (flow cytometric mean fluorescent intensity (MFI) in fold change from baseline). In both assays, a 2-fold change is typically considered to be relevant.

A further series deals with IL-6. Description: IL-6 biomarker in bovine M. haemolytica challenge. Format: in vivo. As to the method: Cytokine Detection—An MSD U-Plex cytokine assay was developed following the MSD U-Plex protocol guide and included biotinylated capture antibodies against: bovine Interleukin (IL)-1β (Biorad), bovine IL-6 (R&D Systems) and bovine tumor necrosis factor (TNF)-α (R&D Systems). The anti-IL-1β antibody was biotinylated using EZ-Link Sulfo-NHS-Biotin (Thermo Scientific) at a challenge ratio of 1:20 according to manufacturer instructions. Assay calibrators (Kingfisher) were diluted to a concentration of […] in control lithium heparin plasma, followed by 4-fold serial dilutions into plasma. The detection antibodies were sulfo-tagged following the MSD quick guide conjugation protocol using a challenge ratio of 1:20. Antibodies were used at the following concentrations: anti-IL-1β at 1 μg/mL, anti-IL-6 at 1 μg/mL and anti-TNF-α at 0.5 μg/mL. Cytokines were quantified according to manufacturer's instructions using a chemiluminescent readout. In brief, 0.5 mL of all biotinylated antibodies were diluted to 10 μg/mL with Diluent 100 and paired to their respective linkers by adding 750 μL of supplied Linker solution and incubated for 30 minutes followed by addition of Stop solution for another 30 minutes. […] Plates were washed a further three times before addition of 150 μL 2X Read buffer and read immediately on the SI6000 instrument (MSD). […]

The test system of series [4] is M. haemolytica challenge model. Description: Separate study, M9 versus saline control: lung lesions and mortality. The format is in vivo. As to conditions: 10 mg/kg; saline control 38.9%, p=0.025. From the text:
BRD infection as compared to saline (T01) in the M. haemolytica challenge model. […] Additionally, reduction of biomarkers consistent with the proposed mechanism were observed.

The source of these data is patent US20250236616A1, “IMMUNOMODULATING AZALIDES” (Zoetis Services LLC, priority 2021, published 2025).

Structures are written as SMILES.

As for `CCCNC[C@]1(O)[C@H](C)O[C@@H](O[C@H]2[C@H](C)[C@@H](O[C@@H]3O[C@H](C)C[C@H](NC)[C@H]3O)[C@](C)(O)C[C@@H](C)CN[C@H](C)[C@@H](O)[C@](C)(O)[C@@H](CC)OC(=O)[C@@H]2C)C[C@@]1(C)OC` [Example M9, (2R,3S,4R,5R,8R,10R,11R,12S,13S,14R)-2-ethyl-3,4, 10-trihydroxy-13-(((2R,4R,5S,6S)-5-hydroxy-4-methoxy-4,6-dimethyl-5-((propylamino)methyl)-tetrahydro-2H-pyran-2-yl)oxy)-11-(((2S,3R,4S,6R)-3-hydroxy-6-methyl-4-(methylamino)tetrahydro-2H-pyran-2-yl)oxy)-3,5,8,10,12,14-hexamethyl-1-oxa-6-azacyclopentadecan-15-one], in series [1] (total lung tissue RNA sequence analysis), the “unique genes up or down regulated (with significance)” value is recorded as “at least 226”. In addition, in series [1] (− = inhibited), the “activation z-score, upstream regulator IFNγ” value was −5.759; the “activation z-score, upstream regulator IL-1β” value is −5.947; the “activation z-score, upstream regulator STAT1” value is recorded as −2.787; the “activation z-score, upstream regulator TNF” value is recorded as −4.669. Moreover, in series [1] (− = inhibited), the “activation z-score, upstream regulator lipopolysaccharide” value is given as −6.725 and the “activation z-score, upstream regulator poly rl: rC-RNA” value is given as −5.289. This molecule returned a maximum plasma concentration in series [2] of 5 µg/mL. The Mortality in series [3] (M. haemolytica challenge Day 0, subcutaneous Day -1, M9 10 mg/kg, Draxxin 2.5 mg/kg) is 1/6. The Mortality in series [3] (No challenge, M9 10 mg/kg subcutaneous Day -1) was 0/6. The IL-6 levels entry with IL-6 is given as “significantly reduced IL-6 levels”. The Mortality in series [4] is 13%.
